According to ChEMBL document CHEMBL4813984, “An original pronucleotide strategy for the simultaneous delivery of two bioactive drugs” (Eur J Med Chem, 2021):

Tests used:
[1] = Selectivity index, ratio of CC50 for human CEM-SS cells to EC50 for antiviral activity against HIV-1 infected in human CEM-SS cells; type: toxicity, cell-based; conditions: read-out: Ratio CC50/EC50
[2] = test system: Human immunodeficiency virus 1; assay: Antiviral activity against HIV-1 infected in human MT4 cells assessed as reduction in virus-indued cytopathogenicity incubated for 5 days by MTT assay; type: functional, organism-based; conditions: Human immunodeficiency virus 1, MT4, 120 h
[3] = Selectivity index, ratio of CC50 for human MT4 cells to EC50 for antiviral activity against HIV-1 infected in human MT4 cells; type: toxicity, cell-based; conditions: read-out: Ratio CC50/EC50
[4] = Cytotoxicity against human CEM-SS cells assessed as reduction in cell viability incubated for 5 days by MTT assay; type: cell-based; conditions: time 5 day
[5] = test system: Human immunodeficiency virus 1; assay: Antiviral activity against HIV-1 infected in human CEM-SS cells assessed as reduction in viral multiplication by measuring decrease in reverse transcriptase activity incubated for 5 days; type: functional, organism-based; conditions: Human immunodeficiency virus 1, CEM-SS, 120 h
[6] = Cytotoxicity against human MT4 cells assessed as reduction in cell viability incubated for 5 days by MTT assay; type: cell-based; conditions: time 5 day
[7] = Selectivity index, ratio of CC50 for human MT4 cells to EC50 for antiviral activity against HIV-1 infected in human MT4 cells in presence of AZT; type: toxicity, cell-based; conditions: read-out: Ratio CC50/EC50
[8] = Cytotoxicity against human CEM-SS cells assessed as reduction in cell viability incubated for 5 days in presence of ddA by MTT assay; type: cell-based; conditions: time 5 day
[9] = Cytotoxicity against human CEM-TK(-) cells assessed as reduction in cell viability incubated for 5 days by MTT assay; type: cell-based; conditions: time 5 day
[10] = Cytotoxicity against human MT4 cells assessed as reduction in cell viability incubated for 5 days in presence of ddA by MTT assay; type: cell-based; conditions: time 5 day
[11] = test system: Human immunodeficiency virus 1; assay: Antiviral activity against HIV-1 infected in human CEM-TK(-) cells assessed as reduction in viral multiplication by measuring decrease in reverse transcriptase activity incubated for 6 days; type: functional, organism-based; conditions: Human immunodeficiency virus 1, CEM-TK(-), 144 h
[12] = Selectivity index, ratio of CC50 for human MT4 cells to EC50 for antiviral activity against HIV-1 infected in human MT4 cells in presence of ddA; type: toxicity, cell-based; conditions: read-out: Ratio CC50/EC50
[13] = test system: Human immunodeficiency virus 1; assay: Antiviral activity against HIV-1 infected in human CEM-TK(-) cells assessed as reduction in viral multiplication by measuring decrease in reverse transcriptase activity incubated for 6 days in presence of AZT; type: functional, organism-based; conditions: Human immunodeficiency virus 1, CEM-TK(-), 144 h
[14] = Selectivity index, ratio of CC50 for human CEM-SS cells to EC50 for antiviral activity against HIV-1 infected in human CEM-SS cells in presence of AZT; type: toxicity, cell-based; conditions: read-out: Ratio CC50/EC50
[15] = Cytotoxicity against human CEM-TK(-) cells assessed as reduction in cell viability incubated for 5 days in presence of AZT by MTT assay; type: cell-based; conditions: time 5 day
[16] = Selectivity index, ratio of CC50 for human CEM-TK(-) cells to EC50 for antiviral activity against HIV-1 infected in human CEM-TK(-) cells in presence of AZT; type: toxicity, cell-based; conditions: read-out: Ratio CC50/EC50
[17] = test system: Human immunodeficiency virus 1; assay: Antiviral activity against HIV-1 infected in human CEM-SS cells assessed as reduction in viral multiplication by measuring decrease in reverse transcriptase activity incubated for 5 days in presence of ddA; type: functional, organism-based; conditions: Human immunodeficiency virus 1, CEM-SS, 120 h
[18] = Cytotoxicity against human MT4 cells assessed as reduction in cell viability incubated for 5 days in presence of AZT by MTT assay; type: cell-based; conditions: time 5 day
[19] = Selectivity index, ratio of CC50 for human CEM-SS cells to EC50 for antiviral activity against HIV-1 infected in human CEM-SS cells in presence of ddA; type: toxicity, cell-based; conditions: read-out: Ratio CC50/EC50
[20] = Selectivity index, ratio of CC50 for human CEM-TK(-) cells to EC50 for antiviral activity against HIV-1 infected in human CEM-TK(-) cells; type: toxicity, cell-based; conditions: read-out: Ratio CC50/EC50
[21] = test system: Human immunodeficiency virus 1; assay: Antiviral activity against HIV-1 infected in human CEM-SS cells assessed as reduction in viral multiplication by measuring decrease in reverse transcriptase activity incubated for 5 days in presence of AZT; type: functional, organism-based; conditions: Human immunodeficiency virus 1, CEM-SS, 120 h
[22] = Cytotoxicity against human CEM-SS cells assessed as reduction in cell viability incubated for 5 days in presence of AZT by MTT assay; type: cell-based; conditions: time 5 day
[23] = test system: Human immunodeficiency virus 1; assay: Antiviral activity against HIV-1 infected in human MT4 cells assessed as reduction in virus-indued cytopathogenicity incubated for 5 days in presence of AZT by MTT assay; type: functional, organism-based; conditions: Human immunodeficiency virus 1, MT4, 120 h
[24] = test system: Human immunodeficiency virus 1; assay: Antiviral activity against HIV-1 infected in human MT4 cells assessed as reduction in virus-indued cytopathogenicity incubated for 5 days in presence of ddA by MTT assay; type: functional, organism-based; conditions: Human immunodeficiency virus 1, MT4, 120 h

Row | Structure (SMILES) | selectivity ratio [1] | EC50 [2] [µM] | selectivity ratio [3] | CC50 at 120 h [4] [µM] | EC50 [5] [µM] | CC50 at 120 h [6] [µM] | CC50 at 120 h [9] [µM] | EC50 [11] [µM] | further results
1 | Nc1ncnc2c1ncn2[C@H]1CC[C@@H](CO)O1 | > 55 | 9 | > 12 | > 110 | 2 | > 110 | – | – | –
2 | Nc1ccn([C@H]2CC[C@@H](CO)O2)c(=O)n1 [ZALCITABINE] | 239 | 2 | 90 | 16 | 0.067 | 180 | 7 | 0.015 | selectivity ratio [7]: 15700; CC50 at 120 h [8]: 46 µM; CC50 at 120 h [10]: > 100 µM; selectivity ratio [12]: > 83; EC50 [13]: 0.009 µM; selectivity ratio [14]: 2880; CC50 at 120 h [15]: 8.3 µM; selectivity ratio [16]: 922; EC50 [17]: 0.01 µM; CC50 at 120 h [18]: 130 µM; selectivity ratio [19]: 4600; selectivity ratio [20]: 467; EC50 [21]: 0.016 µM; CC50 at 120 h [22]: 46 µM; EC50 [23]: 0.083 µM; EC50 [24]: 1.2 µM
3 | Cc1cn([C@H]2C[C@H](N=[N+]=[N-])[C@@H](CO)O2)c(=O)[nH]c1=O [ZIDOVUDINE] | > 40000 | – | 8240 | > 1000 | 0.024 | 140 | > 1000 | > 100 | –
